Experimental findings from ChEMBL document CHEMBL2029276, “E297G mutated bile salt export pump (BSEP) function enhancers derived from GW4064: structural development study and separation from farnesoid X receptor-agonistic activity” (Bioorg Med Chem Lett, 2012) are described below.

The target of one data set is T1, Bile acid receptor (Homo sapiens, UniProt Q96RI1).
T1 sequence (Q96RI1 whole entry): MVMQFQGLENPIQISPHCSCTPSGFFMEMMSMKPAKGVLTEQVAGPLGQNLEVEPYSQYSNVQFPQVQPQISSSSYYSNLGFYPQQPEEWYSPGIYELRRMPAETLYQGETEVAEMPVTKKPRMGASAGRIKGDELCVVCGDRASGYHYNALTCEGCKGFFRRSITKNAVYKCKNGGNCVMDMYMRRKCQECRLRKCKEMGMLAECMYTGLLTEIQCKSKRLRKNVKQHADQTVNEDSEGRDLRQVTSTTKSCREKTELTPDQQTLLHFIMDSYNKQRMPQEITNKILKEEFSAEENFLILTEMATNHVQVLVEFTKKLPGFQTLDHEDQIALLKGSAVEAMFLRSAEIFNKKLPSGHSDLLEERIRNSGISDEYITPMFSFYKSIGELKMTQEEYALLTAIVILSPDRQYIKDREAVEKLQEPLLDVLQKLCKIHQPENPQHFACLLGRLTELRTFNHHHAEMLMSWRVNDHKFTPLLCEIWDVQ
The data set is described as follows: Agonist activity at human recombinant FXR expressed in HEK293 cells coexpressing CMX-GAL4N by luciferase reporter gene assay. The class given is functional, cell-based.

In data set [1] the target is T2, Bile salt export pump (Homo sapiens, UniProt O95342, E297G). As to the kind of experiment: Enhancement of human BSEP E297G mutant trafficking to cell membrane in MDCK2 cells co-expressing NTCP assessed as accumulation of [3H]taurocholate at 10 uM preincubated for 24 hrs prior incubation with [3H]taurocholate measured after 2 hrs by liquid scintillation counting. To be noted: mdck-ii.
T2 sequence (O95342 whole entry E297G): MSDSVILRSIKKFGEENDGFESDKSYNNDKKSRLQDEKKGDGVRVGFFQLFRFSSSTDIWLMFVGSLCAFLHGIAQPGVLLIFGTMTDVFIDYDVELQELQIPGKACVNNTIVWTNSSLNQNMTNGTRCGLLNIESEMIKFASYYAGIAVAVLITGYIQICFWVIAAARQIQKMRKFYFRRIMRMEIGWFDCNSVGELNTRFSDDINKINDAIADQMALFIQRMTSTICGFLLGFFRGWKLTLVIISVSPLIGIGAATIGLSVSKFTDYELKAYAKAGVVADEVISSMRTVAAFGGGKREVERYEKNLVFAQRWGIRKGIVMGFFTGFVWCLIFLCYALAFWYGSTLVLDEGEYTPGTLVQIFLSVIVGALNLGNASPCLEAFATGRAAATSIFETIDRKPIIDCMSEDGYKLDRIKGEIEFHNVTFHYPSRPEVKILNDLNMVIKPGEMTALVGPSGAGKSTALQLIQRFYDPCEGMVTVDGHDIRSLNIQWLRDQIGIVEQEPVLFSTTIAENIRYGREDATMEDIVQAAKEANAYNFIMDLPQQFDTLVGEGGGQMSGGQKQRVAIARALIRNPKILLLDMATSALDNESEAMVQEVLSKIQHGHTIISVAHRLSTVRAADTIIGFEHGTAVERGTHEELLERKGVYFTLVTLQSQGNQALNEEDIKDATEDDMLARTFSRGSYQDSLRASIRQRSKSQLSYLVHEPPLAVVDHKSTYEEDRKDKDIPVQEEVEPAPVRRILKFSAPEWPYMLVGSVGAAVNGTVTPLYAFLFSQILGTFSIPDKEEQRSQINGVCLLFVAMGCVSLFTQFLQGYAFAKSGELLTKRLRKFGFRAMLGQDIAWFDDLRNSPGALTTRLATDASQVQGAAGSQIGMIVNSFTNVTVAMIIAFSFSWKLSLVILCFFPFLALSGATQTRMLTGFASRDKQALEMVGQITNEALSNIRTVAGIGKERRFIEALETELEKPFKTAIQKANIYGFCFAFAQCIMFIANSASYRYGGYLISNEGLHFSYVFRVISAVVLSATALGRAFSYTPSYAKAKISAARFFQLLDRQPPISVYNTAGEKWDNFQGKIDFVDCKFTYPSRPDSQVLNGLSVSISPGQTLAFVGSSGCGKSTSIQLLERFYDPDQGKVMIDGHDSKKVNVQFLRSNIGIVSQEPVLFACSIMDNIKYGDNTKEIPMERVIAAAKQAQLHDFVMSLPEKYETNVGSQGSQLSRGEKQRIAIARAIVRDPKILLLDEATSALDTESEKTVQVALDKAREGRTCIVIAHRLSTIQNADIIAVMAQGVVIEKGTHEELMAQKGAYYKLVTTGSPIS

Data set [2] addresses T2, Bile salt export pump. The data set is described as follows: Enhancement of human BSEP E297G mutant trafficking to cell membrane in MDCK2 cells co-expressing NTCP assessed as accumulation of [3H]taurocholate at 1 uM preincubated for 24 hrs prior incubation with [3H]taurocholate measured after 2 hrs by liquid scintillation counting. To be noted: mdck-ii.

pEC50: −log10 of the molar value.

Broadly, the pEC50 is −log10 of the EC50, conventionally taken in molar units.

`CCCCN(C(=O)c1ccc(OCc2c(-c3c(Cl)cccc3Cl)noc2C(C)C)cc1Cl)c1cccc(C(=O)O)c1`: on Bile acid receptor, the pEC50 is 5.96.

For the compound `CC(C)c1onc(-c2c(Cl)cccc2Cl)c1COc1ccc(C(=O)N(c2cccc(C(=O)O)c2)c2cccc3ccccc23)c(Cl)c1`, on Bile acid receptor, the pEC50 was 5.52.

Take `CC(C)c1onc(-c2c(Cl)cccc2Cl)c1COc1ccc(C(=O)N(Cc2ccccc2)c2ccc(C(=O)O)cc2)c(Cl)c1`: the pEC50 on Bile acid receptor is 5.59.

Take `CC(C)c1onc(-c2c(Cl)cccc2Cl)c1COc1ccc(NC(=O)c2cccc(C(=O)O)c2)c(Cl)c1`: the Activity at Bile salt export pump [1] stood at 75%.

On to `CC(C)c1onc(-c2c(Cl)cccc2Cl)c1COc1ccc(N(C)C(=O)c2cccc(C(=O)O)c2)c(Cl)c1`, for which the Activity at Bile salt export pump [1] was determined as 60%.

Consider `CCCCN(C(=O)c1cccc(C(=O)O)c1)c1ccc(OCc2c(-c3c(Cl)cccc3Cl)noc2C(C)C)cc1Cl`, for which the Activity was 59% at Bile salt export pump [2] and 42% on Bile salt export pump [1].

Consider `CC(C)c1onc(-c2c(Cl)cccc2Cl)c1COc1ccc(N(Cc2ccccc2)C(=O)c2cccc(C(=O)O)c2)c(Cl)c1`, for which the pEC50 on Bile acid receptor was less than 5.00. Further, the Activity at Bile salt export pump [1] amounted to 50%.

As to `CC(C)c1onc(-c2c(Cl)cccc2Cl)c1COc1ccc(N(C(=O)c2cccc(C(=O)O)c2)c2cccc3ccccc23)c(Cl)c1`, the negative logarithm of the EC50 (pEC50) on Bile acid receptor was 6.39. Besides, the Activity on Bile salt export pump [1] turned out to be 59%.

Regarding `CC(C)c1onc(-c2c(Cl)cccc2Cl)c1COc1ccc(/C=C/c2cccc(C(=O)O)c2)c(Cl)c1`, the Activity at Bile salt export pump [1] is recorded as 33%.

`CC(C)c1onc(-c2c(Cl)cccc2Cl)c1COc1ccc(C(=O)N(Cc2ccccc2)c2cccc(C(=O)O)c2)c(Cl)c1`: the Activity at Bile salt export pump [1] is 31%.

On to `C[C@H](CCC(=O)O)[C@H]1CC[C@H]2[C@@H]3[C@H](O)C[C@@H]4C[C@H](O)CC[C@]4(C)[C@H]3CC[C@]12C` [CHENODIOL], for which the Activity on Bile salt export pump [1] is reported as 50%.

On to `C[C@H](CCC(=O)O)[C@H]1CC[C@H]2[C@@H]3CC[C@@H]4C[C@H](O)CC[C@]4(C)[C@H]3C[C@H](O)[C@]12C` [DEOXYCHOLIC ACID], for which the negative logarithm of the EC50 (pEC50) at Bile acid receptor was 4.30.
